In one data set the test system is PPARα. As to the kind of experiment: hPPARa reporter bioassay (Gal4-hPPAR / UAS-luciferase) in HeLa cells. Format: cell-based. Conditions: human HeLa cells, dose response. The source says:
(§1) In more detail, when PPARs fix their ligands they are able to shuttle from cytoplasm to the nucleus of HeLa cells. Then, PPARs heterodimerize with co-receptors called Retinoid-X-Receptors (RXR). Heterodimeric transcription factors PPAR/RXR are responsible for PPARs-mediated transcriptional program. In this system, hPPARs are fused to Gal4. Gal4 is a yeast transcription activator which specifically binds a Gal4 responsive element so-called Upstream Activation Sequence (UAS)— this short section in a promoter region strongly activates gene transcription. Therefore, cotransfection of Gal4-hPPARs with UAS-luciferase constructs allows identification hPPARs agonists. Agonists will stimulate luciferase transcription resulting in the formation of a functional enzyme that converts substrate to detectable signal by a chemiluminescent reaction.
(§2) The assays detect binding of a ligand to the hPPAR of interest by directly measuring luciferase activity. When PPARs fixe their ligands they are able to shuttle from cytoplasm to the nucleus of HeLa cells. Then, PPARs heterodimerize with co-receptors called Retinoid-X-Receptors (RXR). […]
(§3) An edible plant fraction library was tested for PPARs agonist activity and toxicity. Then relevant plant fractions were further analyzed and bioactive(s) characterized and validated with the same hPPARa, hPPARg or hPPARd reporter bioassays. […]

The next data set deals with PPARγ. The data set can be described thus: hPPARg reporter bioassay (Gal4-hPPAR / UAS-luciferase) in HeLa cells. Format: cell-based. Conditions: human HeLa cells, dose response.
From the text: as §1, §2, §3

The subject of another data set is HeLa cells. As to the kind of experiment: Cellular toxicity, standard method, compared to untreated cells. Format: cell-based, human. The settings on record: up to highest dose used. The procedure: The AC50 (upper part of the insert) and the maximum % activation (lower part of the insert) are given. Cellular toxicity was also assessed with standard method compared to untreated cells and shown in % of toxicity.
An edible plant fraction library was tested for PPARs agonist activity and toxicity. Then relevant plant fractions were further analyzed and bioactive(s) characterized and validated with the same hPPARa, hPPARg or hPPARd reporter bioassays. The reporter bioassay we used in order to identify anti-inflammatory plant properties targeted activation of human PPARs in human HeLa cells (as described in the FIG. 1). All isolated bioactives were tested in a dose response manner in duplicate. Assays were repeated 3-4 times. Shown are mean values obtained. Therefore specificity (for all the three known human PPAR receptors namely PPARα, PPARd and PPARg) and efficacy (full agonist i.e. % maximal activity >100% or partial agonist i.e. % maximal activity <100%) were tested (FIG. 2-4).

The structures appear in SMILES notation.

Take `COc1cc([C@@H]2c3cc4c(cc3[C@H](O)[C@H]3COC(=O)[C@H]23)OCO4)cc(OC)c1OC` [podophyllotoxin]: the “agonistic activity on PPARα” value in the data set on PPARα was “dual agonistic activity”. For the same molecule, the “agonistic activity on PPARγ” value in the data set with PPARγ is “dual agonistic activity”.

Turning to `COc1cc([C@@H]2c3cc4c(c(O)c3C[C@H]3COC(=O)[C@@H]32)OCO4)cc(OC)c1OC` [β-peltatin], the “agonistic activity on PPARα” value in the data set on PPARα is “dual agonistic activity”. Besides, the “agonistic activity on PPARγ” value with PPARγ is “dual agonistic activity”. The “cellular toxicity (% of toxicity)” value is on record as “no toxicity was observed” in the data set on HeLa cells (FIG. 2, alongside PPARα activation dose-response); “no toxicity was observed” with HeLa cells (FIG. 3, alongside PPARg activation dose-response); “no toxicity was observed” with HeLa cells (FIG. 4, alongside PPARd activation dose-response).

These data come from patent publication US20150057344A1, “PELTATIN FOR THE TREATMENT OF CHRONIC INFLAMMATORY DISORDERS” (priority 2012, published 2015).
